Results published in patent US20230212216A1, “SYNTHESIS OF LACTONE DERIVATIVES AND THEIR USE IN THE MODIFICATION OF PROTEINS” (priority 2019, published 2023).
Where two headings read alike, the source gives them in different places. Where no end group is shown, it is not given here.

Key:
[1] = tested on: N-terminally gluconoyl-labelled Beltide-1 derivative peptide PP6; assay: Boron-containing reagents to modulate reversibility (heat-accelerated deacylation); type: physicochemical; details: 5 mM additive, 50 μM peptide; for Remaining gluconoyl-label, pH 7.5 after 15 h at 50° C.: 50 mM HEPES/NaOH buffer; for Remaining gluconoyl-label, pH 6.8 after 15 h at 50° C.: 50 mM phosphate/KOH buffer
Description: To explore the reversibility modulating effect of various boron-containing molecules, a small library of reagents was tested at pH 7.5 (50 mM HEPES/NaOH buffer) and pH 6.8 (50 mM phosphate/KOH buffer).
Reaction supplemented with 5 mM of additive; calculated as the ratio of the TIC for the labelled divided by the sum of TICs of both labelled and unlabeled species.

[2] = tested on: GDL acylated G-H6-Beltide-1; assay: Effect of copper ions on reversibility of acylation; type: physicochemical; details: various CuSO4 concentrations, pH 7.5, 37° C.
Description: FIG. 3: Reversibility of GDL:G-H6-Beltide-1 in the presence of various CuSO4 and EDTA concentrations at pH 7.5. GDL acylated G-H6-Beltide-1 was produced as before, extra GDL was removed by C18 reverse phase purification and the acylated peptide (20 μM) was stored in 50 mM HEPES (NaOH) buffer supplemented with various concentrations of CuSO4 and EDTA at 37° C. Change in acylation status was monitored by MALDI-TOF MS TIC and is reported as the relative m/z ratio of the acylated (m1) and non-acylated species (m2) ([m1/z/(m1/z+m2/z)]*100%).
1 mM G-H6-Beltide-1 (˜1 mg of peptide) was acylated with 100 mM GDL in 200 mM HEPES (NaOH) pH 7.5 for 1 h at room temperature in a total volume of ˜300 μL. Upon addition of buffer to peptide but before addition of GDL, precipitation was clearly observed. This precipitation may be due to the theoretical pI of G-H6-Beltide-1 being close to pH 7.5, or because G-H6-Beltide-1 is a Beltide-1 variant. Beltide-1 is known to form nanodiscs in solution upon contact with membrane proteins or lipid components (Midtgaard et al. 2014; Martos-Maldonado et al. 2018). GDL was added to 100 mM from a freshly prepared 1 M stock solution. The solution remained cloudy. […] The acylated peptide was analyzed by MALDI-MS and initial acylation extent was estimated to be ˜96%, stored at −20° C. until further usage. […]

[3] = tested on: GDL-acylated GSS-H6-Beltide-1 peptide; assay: Effect of nickel ions on reversibility of acylation; type: physicochemical; details: 0.01-1 mM NiSO4, pH 7.5, 37° C., up to day 7
Description: GSS-H6-Beltide-1 peptide was GDL-acylated and extra GDL was removed via C18 SepPack chromatography. GDL-acylated peptide was dissolved in 100 mM HEPES (NaOH), pH 7.5, 10% ACN (v/v) to a final concentration of ˜100 μM and aliquoted into 0.5 mL LoBind (Eppendorf) microcentrifuge tubes. NiSO4 was supplemented to 0, 0.01, 0.1, and 1 mM final concentration from a 100 mM NiSO4 stock in H2O. A control sample was supplemented with a pre-mixed solution of NiSO4 and EDTA, to give a final concentration of 1 mM NiSO4 and 5 mM EDTA [stock solution 10 mM NiSO4 and 50 mM EDTA (NaOH neutralized)]. The samples (50 μL volume each) were kept in a water bath at 37° C. Aliquots of 2 μL were taken on day 1, 3, 5, and 7, mixed with 10 μL of 5% acetic acid, purified by C18 ZipTip chromatography and analyzed by MALDI-TOF-MS instrumentation.

[4] = tested on: GDL-acylated GSS-H6-Beltide-1 peptide; assay: Effect of zinc ions on reversibility of acylation; type: physicochemical; details: day 7
Description: GSS-H6-Beltide-1 peptide was GDL-acylated and extra GDL was removed via C18 SepPack chromatography. GDL:peptide was dissolved in 100 mM HEPES (NaOH), pH 7.5 with or without ZnSO4 (0.2 mM and 2 mM) to a final concentration of ˜100 μM. ACN was added to 10% v/v to reduce possible nanodisc formation and precipitation of the peptide to the plastic microcentrifuge wall. The reaction mixtures (100 μL volume each) were kept in a water bath at 37° C. Aliquots of 2 μL were taken at day 3, mixed with 10 μL of 5% acetic acid, purified by C18 ZipTip chromatography and analyzed by MALDI-TOF-MS instrumentation. […] The remaining reaction mixture (80 μL) was acidified by adding 50% (v/v) acetic acid. The amount of acetic acid to be added was calculated as 20% of the remaining reaction volume [final concentration 7.57% acetic acid v/v]. Likewise, 10% reaction volume of 100% acetonitrile were added (final concentration acetonitrile ˜16.6% v/v) and the reaction was mixed by quick vortexing. Of this mixture, 15 μL aliquots were processed via C18 ZipTip chromatography and analyzed by MALDI-TOF-MS instrumentation. We speculate that the peptide had bound to the microcentrifuge wall and assumed that the precipitation affected both acylated and non-acylated species equally.

[5] = tested on: 6-AGDL acylated GSS-H6-Beltide-1
Description: The volume was then made up to 15 mL to give a 1 M stock solution.
pH 6 buffer was made by preparing a 1 M stock solution of citric acid monohydrate and by making a solution of 1 M sodium citrate dihydrate. The two solutions were mixed to give a 1 M stock solution of pH 6.
pH 7.5 buffer was made by mixing a 1 M stock solution of potassium phosphate monobasic with 1 M solution of potassium phosphate dibasic to give a pH of 7.5.
pH 8.8 buffer was prepared by titrating 1 M solution of acetic acid with ammonium solution to give pH 8.8.
20 μM 6-AGDL modified peptide was stored in 100 μL aliquots in 200 mM buffer as indicated. The vials (triplicates) were incubated in a 37° C. water bath throughout the experiment and were retrieved for sample acquisition for <30 mins at room temperature before they were returned to the water bath.
10 μL of subsamples for pH 4, 6 and 8.8 were acidified with 5 μL of 20% (v/v) acetic acid and subjected to C18 ZipTip purification. Samples were analyzed in positive reflectron mode with MALDI-TOF MS.
pH 7.5 samples were stored in the presence of 10% ACN (v/v) to counteract precipitation. For pH 7.5 samples, 15 μL aliquots were taken for each time point and desalted using 0.1% TFA-70% ACN/0.1% TFA C18 Zip-Tip procedure. 0.5 μL of the Eluate was mixed 1:1 with C1CCA matrix mixture and spotted onto a MALDI steel target prior to detection in reflector positive mode MALDI-TOF MS.

serine protease trypsin = details: 50 mM boric acid
[6] = Reversibility of 6-AGDL acylated G-H6 and non-His-tagged peptides; type: physicochemical; details: 6-AGDL acylated peptide, 14 days at room temperature, 1M HEPES pH 7.5
Description: 100 μM of G-H6-Beltide-1, GGKWSKR-Beltide-1 and GGTYSDH-Beltide-1 peptides were reacted at 4° C. with 6-AGDL in 1M HEPES, pH 7.5 by sequentially adding 100 mM 6-AGDL twice in 3 h intervals. Extra 6-AGDL was not removed, and the samples were stored at room temperature throughout the experiment.
2 μL from each sample were taken at each time point except for day 14. 10 μL of 2% acetic acid was added to each timepoint sample and the mixtures were desalted by C18 ZipTip chromatography. Eluate was analyzed by MALDI-TOF MS as before.
At day 14 the remaining samples underwent recovery procedure where all of the reaction mixtures were acidified by adding 20% of reaction volume of 50% (v/v) acetic acid [final concentration 7.57% acetic acid (v/v)] and then adding 10% reaction volume of 100% acetonitrile [final concentration ACN […]]. Of this mixture, 15 μL aliquots were taken, cleaned by ZipTip C18 Chromatography and analyzed by MALDI-TOF-MS instrumentation.

[7] = tested on: non-activated HEK-produced RBD; assay: Endpoint anti-RBD ELISA of sera of immunized mice; design: species or system SARS-CoV-2; details: in vivo
Pseudovirus = assay: Pseudovirion neutralization assay; type: cell-based, SARS-CoV-2; details: mice sera day 42, after a total of 3 immunizations
Description: The conjugate material was then used to immunize mice at 10 μg per dose formulated in AddaVax (Invivogen) according to the manufacturer on Day 0. Boosts with the same dose and formulation were performed on day 14 and day 28. Sera samples were taken before each immunization for immunological studies. Animals were sacrificed on day 42.
Pseudovirion neutralization assays were performed with samples obtained at day 42 according to standard procedures known in the art.

In the case of `O=Cc1ccccc1B(O)O` [2-formylphenylboronic acid], the “Remaining gluconoyl-label, pH 7.5 after 15 h at 50° C.” value [1] is reported as roughly 99% and the “Remaining gluconoyl-label, pH 6.8 after 15 h at 50° C.” value [1] is reported as roughly 95%.
With `O=Cc1ccc(B(O)O)cc1` [4-formylphenylboronic acid] the “Remaining gluconoyl-label, pH 7.5 after 15 h at 50° C.” value [1] was roughly 95% and the “Remaining gluconoyl-label, pH 6.8 after 15 h at 50° C.” value [1] was roughly 46%.
In the case of `O=S(=O)([O-])[O-].[Cu+2]` [CuSO4], the rate of reversibility [2] is reported as “decreasing rate of reversibility as a function of increasing CuSO4 concentration”.
In the case of `O=S(=O)([O-])[O-].[Ni+2]` [NiSO4], the reversibility of acylation [3] is reported as “seemingly abolished reversibility”.
With `O=S(=O)([O-])[O-].[Zn+2]` [ZnSO4] the remaining gluconoylation ([4]; 0.2 mM ZnSO4, pH 7.5, 37° C.) was roughly 80% and the remaining gluconoylation ([4]; 2 mM ZnSO4, pH 7.5, 37° C.) was roughly 75%.
For `OB(O)O` [boric acid, Boric acid], the reversibility of acylation ([5]; >50 mM boric acid, pH 8.8, 7 days, 37° C.) was “effectively inhibited”, the reversibility of acylation ([5]; pH 4, 37° C.) was “no effect was observed” and the reversibility of acylation ([5]; pH 6, 37° C.) was “modulated the reversibility”. For the same molecule, the “Remaining gluconoyl-label, pH 7.5 after 15 h at 50° C.” value [1] was roughly 69%, the “Remaining gluconoyl-label, pH 6.8 after 15 h at 50° C.” value [1] was roughly 8% and the inhibition of trypsin (serine protease trypsin) was “did not measurably inhibit”.
For `CB(O)O` [methylboronic acid], the “Remaining gluconoyl-label, pH 7.5 after 15 h at 50° C.” value [1] was roughly 59% and the “Remaining gluconoyl-label, pH 6.8 after 15 h at 50° C.” value [1] was roughly 6%.
For `OB(O)c1ccccc1` [phenylboronic acid], the “Remaining gluconoyl-label, pH 7.5 after 15 h at 50° C.” value [1] was roughly 83% and the “Remaining gluconoyl-label, pH 6.8 after 15 h at 50° C.” value [1] was roughly 31%.
With `OB1OCc2cc(F)ccc21` [tavaborole, 5-Fluoro-1,3-dihydro-1-hydroxy-2,1-benzoxaborole] the “Remaining gluconoyl-label, pH 7.5 after 15 h at 50° C.” value [1] was roughly 87% and the “Remaining gluconoyl-label, pH 6.8 after 15 h at 50° C.” value [1] was roughly 87.9%.
Work on “GGKWSKRDWLKAFYDKVAEKLKEAF [GGKWSKR-Beltide-1]” yielded a remaining acylation [6] of roughly 64%.
Molecule “GGTYSDHDWLKAFYDKVAEKLKEAF [GGTYSDH-Beltide-1]” has a remaining acylation [6] of 75%.
For GHHHHHHDWLKAFYDKVAEKLKEAF [PP1], the remaining acylation [6] was 27%.
In the case of “Qbeta: Qbeta VLPs (SEQ ID NO: 86) produced in E. coli”, the “anti-RBD response (ELISA titers) after a single injection” value [7] is reported as “did not show a measurable response” and the “% of neutralization at dilution 1:300” value (Pseudovirus) is reported as 17.24%.
